The values below come from patent US6696431B2, “26,27-homologated-20-EPI-2-alkylidene-19-nor-vitamin D compounds” (Wisconsin Alumni Research Foundation, priority 1997, dated 2004).

For test [1], the system named is vitamin D-deficient rats. In words: Intestinal calcium transport after a single dose (Table 2). The class given is in vivo, rat. The conditions noted are these: single intrajugular dose 650 pmol, 24 h later, mean±SEM. The procedure:
(§1) Male Holtzman strain weanling rats were obtained from the Sprague Dawley Co. (Indianapolis, Ind.) and fed the 0.47% calcium, 0.3% phosphorus diet described by Suda et al. (J. Nutr. 100, 1049-1052, 1970) for 1 week and then fed the same diet containing 0.02% calcium and 0.3% phosphorus for 2 additional weeks. At this point, they received a single intrajugular injection of the indicated dose dissolved in 0.1 ml of 95% propylene glycol/5% ethanol. Twenty-four hours later they were sacrificed and intestinal calcium transport and serum calcium were determined as described in Table 1. The dose of the compounds was 650 pmol and there were 5 animals per group. The data are expressed as mean±SEM.

In test [2] the test system is Vitamin D-Deficient Rats on a Low-Calcium Diet. In words: Bone calcium mobilization (serum Ca) in vitamin D-deficient rats on a low-calcium diet (Tables 4, 6). The class given is in vivo, rat.
For test [3], the system named is vitamin D-deficient rats. Put plainly: Serum calcium (bone calcium mobilization), chronic doses for 7 days (Table 1). The following applies: for Serum Calcium: intraperitoneal, 24 h after last dose, mean±SEM; for bone calcium mobilization, in words: 130 and 260 pmol/day. In kind it is in vivo, rat. As to the method:
(§2) Male weanling rats were obtained from Sprague Dawley Co. (Indianapolis, Ind.) and fed a 0.47% calcium, 0.3% phosphorus vitamin D-deficient diet for 1 week and then given the same diet containing 0.02% calcium, 0.3% phosphorus for 2 weeks. During the last week they were given the indicated dose of compound by intraperitoneal injection in 0.1 ml 95% propylene glycol and 5% ethanol each day for 7 days. The control animals received only the 0.1 ml of 95% propylene glycol, 5% ethanol. Twenty-four hours after the last dose, the rats were sacrificed and intestinal calcium transport was determined by everted sac technique as previously described and serum calcium determined by atomic absorption spectrometry on a model 3110 Perkin Elmer instrument (Norwalk, Conn.). There were 5 rats per group and the values represent mean±SEM.

The subject of test [4] is HL-60 cells. In words: Differentiation of HL-60 promyelocytes to monocytes (NBT reduction). The class given is cell-based. The conditions noted are these: for HL-60 Differentiation ED50: concentration inducing 50% maturation, NBT reduction; for induction of differentiation of HL-60 cells to the monocyte, in words: FIG. 2; for HL-60 Differentiation Activity ratio: ratio of analog ED50 to ED50 for 1α,25-(OH)2D3.

Test [5] relates to vitamin D-deficient rats. Put plainly: Serum calcium (bone calcium mobilization) after a single dose (Table 2). The conditions noted are these: single intrajugular dose 650 pmol, 24 h later, mean±SEM. In kind it is in vivo, rat. As to the method: as §1
Test [6] deals with vitamin D-deficient rats. In words: Intestinal calcium transport (everted sac), chronic doses for 7 days (Table 1). In kind it is in vivo, rat. The conditions noted are these: for Intestinal Calcium Transport (S/M): intraperitoneal, 24 h after last dose, mean±SEM; for intestinal calcium transport, in words: chronic 7 days, 130 or 260 pmol/day, 1,25-(OH)2D3 at 260 pmol/day only. The procedure: as §2

Test [7] deals with Vitamin D-Deficient Rats on a Low-Calcium Diet. In words: Intestinal calcium transport in vitamin D-deficient rats on a low-calcium diet (Tables 4, 6). The class given is in vivo, rat.
In test [8] the target is T1, porcine intestinal vitamin D receptor (Sus scrofa, UniProt A3RGC1).
T1 construct: from tissue; host or cells: porcine intestine
T1 sequence (A3RGC1 1-427): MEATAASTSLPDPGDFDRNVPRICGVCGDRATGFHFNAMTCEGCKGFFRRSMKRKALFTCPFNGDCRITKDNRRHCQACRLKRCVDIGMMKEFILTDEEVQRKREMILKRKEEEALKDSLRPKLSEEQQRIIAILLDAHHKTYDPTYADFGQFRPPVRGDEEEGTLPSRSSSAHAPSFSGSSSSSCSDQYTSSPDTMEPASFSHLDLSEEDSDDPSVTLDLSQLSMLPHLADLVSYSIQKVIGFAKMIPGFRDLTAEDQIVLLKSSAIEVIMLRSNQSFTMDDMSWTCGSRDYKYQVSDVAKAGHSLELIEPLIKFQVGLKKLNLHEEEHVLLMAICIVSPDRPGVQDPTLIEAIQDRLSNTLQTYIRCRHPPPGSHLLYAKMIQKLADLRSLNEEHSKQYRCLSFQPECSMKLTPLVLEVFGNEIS
Put plainly: Competitive binding to the porcine intestinal vitamin D receptor. The conditions noted are these: for EC50: concentration for 50% displacement of radiolabeled 1α,25-(OH)2D3, read-out: VDR Binding ED50; for VDR Binding ratio: ratio of analog ED50 to ED50 for 1α,25-(OH)2D3.

Setting [9] is: 260 pmol daily for 7 days i.p., Table 4 and Table 6 panel 1.
The mark [10] stands for this setting: 260 pmol daily for 7 days i.p., Table 6 panel 2.
[11] abbreviates: 15 pmol daily for 7 days i.p., Table 4 and Table 6 panel 1.
Where [12] appears, read: 32 pmol daily for 7 days i.p., Table 4 and Table 6 panel 1.
The mark [13] stands for this setting: 65 pmol daily for 7 days i.p., Table 6 panel 2.

Marks after values point to notes of the source that are not given here.

Consider `C=C1/C(=C\C=C2/CCC[C@]3(C)[C@@H]([C@H](C)CCCC(C)(C)O)CC[C@@H]23)C[C@@H](O)C[C@@H]1O` [1,25-(OH)2D3, 1α,25-dihydroxyvitamin D3, reference compound], for which the entries for the “Intestinal Calcium Transport (S/M)” value in test [1] and in test [6] (260 pmol/day for 7 days) were 5.8 ± 0.3 S/M and 6.2 ± 0.4 S/M, respectively. The “Serum Ca (mean ± SEM)” value is 5.6 ± 0.2^c in test [2] (setting [9]) and 6.3 ± 0.2^c in test [2] (setting [10]). The entries for the “Serum Calcium” value in test [3] (130 pmol/day for 7 days), in test [3] (260 pmol/day for 7 days) and in test [5] were 13.8 mg/100 ml, 7.2 ± 0.5 mg/100 ml and 5.7 ± 0.2 mg/100 ml, respectively. Also, in test [4] (listed as 1α,25-(OH)2D3), the “HL-60 Differentiation ED50” value amounted to 4 nM. Besides, the “intestinal calcium transport, in words” value in test [6] was “expected elevation”. Further, the “Ca Transport S/M (mean ± SEM)” value in test [7] (setting [9]) is 7.2 ± 0.6^c S/M; in test [7] (setting [10]), 5.0 ± 0.4^c S/M.

With `C=C1[C@H](O)CC(=C/C=C2\CCC[C@]3(C)[C@@H]([C@H](C)CCCC(C)(C)O)CC[C@@H]23)C[C@H]1O` [2-Methylene-19-Nor-1,25-(OH)2D3, 1α,25-dihydroxy-2-methylene-19-nor-vitamin D3], the results for the “Intestinal Calcium Transport (S/M)” value in test [1], in test [6] (130 pmol/day for 7 days) and in test [6] (260 pmol/day for 7 days) were 5.3 ± 0.5 S/M, 5.3 ± 0.4 S/M and 4.9 ± 0.6 S/M, respectively. In addition, the figures for the “Serum Calcium” value in test [3] (130 pmol/day for 7 days), in test [3] (260 pmol/day for 7 days) and in test [5] were 9.9 ± 0.2 mg/100 ml, 9.6 ± 0.3 mg/100 ml and 6.4 ± 0.1 mg/100 ml, respectively. Also, the “bone calcium mobilization, in words” value in test [3] (chronic 7 days) is listed as “extremely strong bone calcium mobilization”. In addition, the “bone calcium mobilization activity relative to 1,25-(OH)2D3 (native hormone)” value in test [3] (chronic 7 days, for the 20(S) compound at 130 pmol/day) is 10-100 times. Also, the “induction of differentiation of HL-60 cells to the monocyte, in words” value in test [4] was “activity similar to 1,25-(OH)2D3”. Besides, the “intestinal calcium transport, in words” value in test [6] is “no intestinal calcium transport activity”.

For the compound `C=C1[C@H](O)CC(=C/C=C2\CCC[C@]3(C)[C@@H]([C@@H](C)CCCC(C)(C)O)CC[C@@H]23)C[C@H]1O` [2-Methylene-19-Nor-20(S)-1,25-(OH)2D3, 20(S)-1α,25-dihydroxy-2-methylene-19-nor-vitamin D3], the figures for the “Intestinal Calcium Transport (S/M)” value in test [1], in test [6] (130 pmol/day for 7 days) and in test [6] (260 pmol/day for 7 days) were 5.5 ± 0.6 S/M, 5.7 ± 0.8 S/M and 4.6 ± 0.7 S/M, respectively. The “Serum Calcium” value in test [3] (130 pmol/day for 7 days) worked out at 13.8 ± 0.5 mg/100 ml; in test [3] (260 pmol/day for 7 days) it was 14.4 ± 0.6 mg/100 ml; in test [3] (260 pmol/day for 7 days, listed as 2-methylene-19-nor-20(S)-1,25-(OH)2D3), 14 mg/100 ml; in test [5], 8.0 ± 0.1 mg/100 ml. Besides, the “bone calcium mobilization, in words” value in test [3] (chronic 7 days) is “most potent compound tested”. Moreover, the “induction of differentiation of HL-60 cells to the monocyte, in words” value in test [4] is recorded as “extremely potent”. Besides, the “intestinal calcium transport, in words” value in test [6] is “no significant change”.

On to `C=C1[C@H](O)CC(=C/C=C2\CCC[C@@]3(C)C2CCC3[C@@H](C)CCCC(O)(CC)CC)C[C@H]1O` (stereo partly drawn) [Compound 35, 20(S)-1α,25-Dihydroxy-2-methylene-26,27-dihomo-19-norvitamin D3], for which the “Serum Ca (mean ± SEM)” value in test [2] (setting [11]) is 5.3 ± 0.1^d^^1; in test [2] (setting [12]), 7.3 ± 0.4^d^^2. In addition, in test [4], the “HL-60 Differentiation Activity ratio” value came to 0.01. For the same compound, the EC50 in test [8] came out at 4.3 nM. In addition, the “VDR Binding ratio” value in test [8] worked out at 4.9. Besides, the “Ca Transport S/M (mean ± SEM)” value in test [7] (setting [11]) is listed as 4.0 ± 0.4^d^^1 S/M; in test [7] (setting [12]) it was 8.2 ± 0.6^d^^2 S/M.

As to `C=C1[C@H](O)CC(=C/C=C2\CCC[C@@]3(C)C2CCC3[C@@H](C)CCC=C2CCCC2)C[C@H]1O` (stereo partly drawn) [Compound 45, 20(S)-26,27-dimethylene-1α-hydroxy-2-methylene-24-dehydro-19-norvitamin D3], the “Serum Ca (mean ± SEM)” value in test [2] (setting [13]) was 5.7 ± 0.1^d^^1. Moreover, in test [2] (setting [10]), the “Serum Ca (mean ± SEM)” value is reported as 10.8 ± 0.3^d^^2. Moreover, in test [4], the “HL-60 Differentiation ED50” value stood at 4.1 nM and the “HL-60 Differentiation Activity ratio” value worked out at 1.0. Also, in test [8], the EC50 stood at 29 nM and the “VDR Binding ratio” value was 33. Also, in test [7] (setting [13]), the “Ca Transport S/M (mean ± SEM)” value is 5.5 ± 0.8^d^^1 S/M. For the same compound, the “Ca Transport S/M (mean ± SEM)” value in test [7] (setting [10]) was 4.3 ± 0.5^d^^2 S/M.

With `C=C1[C@H](O)CC(=C/C=C2\CCC[C@@]3(C)C2CCC3[C@@H](C)CCCC2(OC)CCCC2)C[C@H]1O` (stereo partly drawn) [Compound 46, 20(S)-26,27-dimethylene-1α-hydroxy-25-methoxy-2-methylene-19-norvitamin D3], in test [2] (setting [13]), the “Serum Ca (mean ± SEM)” value is listed as 5.7 ± 0.1^e^^1. In test [2] (setting [10]), the “Serum Ca (mean ± SEM)” value is reported as 10.8 ± 0.3^e^^2. Moreover, in test [4], the “HL-60 Differentiation ED50” value turned out to be 4.3 nM and the “HL-60 Differentiation Activity ratio” value is given as 1.1. In test [8], the EC50 amounted to 15 nM and the “VDR Binding ratio” value came to 17. Also, the “Ca Transport S/M (mean ± SEM)” value in test [7] (setting [13]) is reported as 5.5 ± 0.8^e^^1 S/M. Also, in test [7] (setting [10]), the “Ca Transport S/M (mean ± SEM)” value is given as 4.3 ± 0.5^e^^2 S/M.

Consider `C=C1[C@H](O)CC(=C/C=C2\CCC[C@@]3(C)C2CCC3[C@@H](C)CCCC2(O)CCCC2)C[C@H]1O` (stereo partly drawn) [Compound 47, 20(S)-1α,25-dihydroxy-26,27-dimethylene-2-methylene-19-norvitamin D3], for which the results for the “Serum Ca (mean ± SEM)” value in test [2] (setting [11]) and in test [2] (setting [12]) were 5.4 ± 0.2^d^^1 and 6.4 ± 0.2^d^^2, respectively. Further, the “HL-60 Differentiation ED50” value in test [4] came out at 0.036 nM. Further, in test [4], the “HL-60 Differentiation Activity ratio” value was found to be 0.01. Moreover, the EC50 in test [8] was determined as 2.7 nM. Further, the “VDR Binding ratio” value in test [8] is reported as 3.1. Also, the “Ca Transport S/M (mean ± SEM)” value in test [7] (setting [11]) was 5.6 ± 0.6^d^^1 S/M; in test [7] (setting [12]), 5.3 ± 0.5^d^^2 S/M.
